Some test systems named below: SNB-78; KM-20L2; DMS-273; M19-MEL; DLD-1; RXF 631; DMS-114; HOP-18; XF498.
Common to all, as to assay: NCI tumour cell line growth inhibition, 48 h

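48-hour exposure; five concentrations; linearly interpolated endpoints. At the GI50, growth is halved.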 Active and inactive are the calls of the source. No stated cut-off is given here; in the data, active = GI50 up to about 1.1 µM and inactive = higher.

As for `CC(/C=C/NNC1=NN=C(c2ccccc2)C(c2ccccc2)N1)Sc1ccccc1N` (centres undefined), the GI50 in the assay on SNB-78 is 7.31 µM (inactive); with KM-20L2 it was 10.6 µM (inactive); in the assay with DMS-273, 6.7 µM (inactive); in the assay on M19-MEL, 9.2 µM (inactive); with DLD-1, 3.62 µM (inactive); in the assay with RXF 631, 13.1 µM (inactive).

As for `NC1=NS(=O)(=O)N=C(N)C1=Cc1ccc([N+](=O)[O-])o1`, the GI50 in the assay on DMS-114 was 17.7 µM (inactive); in the assay on SNB-78 it was 19.6 µM (inactive); with HOP-18 it was 18 µM (inactive); in the assay on KM-20L2, 16.6 µM (inactive); in the assay on DMS-273 it was 16.7 µM (inactive); with XF498, 18.7 µM (inactive). The values for the GI50 in the assay on M19-MEL and with DLD-1 were 16.5 µM (inactive) and 17.1 µM (inactive), respectively.

`Cc1ccc2nc(NC(=O)C(=O)C(C#N)c3nc4ccccc4s3)sc2c1` (centres undefined): the GI50 was 24.8 µM (inactive) in the assay on DMS-114; 36.3 µM (inactive) with SNB-78; 11.6 µM (inactive) in the assay with HOP-18; 28 µM (inactive) in the assay on KM-20L2; 28.4 µM (inactive) with DMS-273; 28.8 µM (inactive) in the assay on XF498. Also, the figures for the GI50 in the assay on M19-MEL and with RXF 631 were 43.6 µM (inactive) and 44.7 µM (inactive), respectively.

`COC(=O)C1=Cc2cc(OC)c(OC)c(OC)c2[C@H](c2cc(OC)c(OC)c(OC)c2)C1C(=O)OC` (some centres undefined): the GI50 in the assay with DMS-114, with SNB-78, with KM-20L2, with DMS-273, in the assay with XF498 and in the assay on M19-MEL was > 100 µM (inactive) throughout. For the same molecule, the GI50 in the assay on DLD-1 and in the assay on RXF 631 was > 100 µM (inactive) in each case.

On to `CCSc1nnc(-c2ccccc2)nc1Cc1ccc(OC)cc1`, for which the GI50 in the assay with SNB-78 was 78 µM (inactive); in the assay on HOP-18 it was > 100 µM (inactive); in the assay on KM-20L2 it was > 100 µM (inactive); in the assay with DMS-273, 71.9 µM (inactive); in the assay on XF498, 62.7 µM (inactive); in the assay with M19-MEL it was > 100 µM (inactive). Besides, the GI50 with DLD-1 is > 100 µM (inactive).

On to `O=C1NC(=S)NC(=O)C1=Cc1ccc2ccccc2n1`, for which the GI50 with DMS-114, in the assay on SNB-78, with HOP-18, in the assay with KM-20L2, in the assay with DMS-273 and in the assay with M19-MEL was > 100 µM (inactive) in each case. Moreover, the GI50 in the assay with DLD-1 was > 100 µM (inactive).

As for `CC(C)c1ccccc1NC(=O)CCC(=O)NN`, the GI50 in the assay on SNB-78, in the assay on KM-20L2, in the assay on DMS-273, in the assay with XF498, in the assay on M19-MEL and in the assay with DLD-1 was > 100 µM (inactive) in each case. The GI50 with RXF 631 was > 100 µM (inactive).

As to `COC(=O)/C(C#N)=C1\CCC(OC)N1C` (centres undefined), the GI50 in the assay with DMS-114, in the assay with SNB-78, in the assay with HOP-18, in the assay with KM-20L2, in the assay with DMS-273 and with XF498 was > 100 µM (inactive) throughout. Besides, the GI50 in the assay on M19-MEL and in the assay with DLD-1 was > 100 µM (inactive) throughout.

In the case of `COc1ccc(-c2cc(-c3cc(Cl)cc(Br)c3O)nc(O)n2)cc1`, the GI50 was 14.1 µM (inactive) in the assay on DMS-114; 18.7 µM (inactive) in the assay on SNB-78; 17.2 µM (inactive) in the assay with HOP-18; 19.1 µM (inactive) in the assay on KM-20L2; 15 µM (inactive) in the assay on DMS-273; 19.7 µM (inactive) in the assay on M19-MEL. Also, the GI50 in the assay on DLD-1 is 16.7 µM (inactive).

`CCN(CC)C(=O)CCn1ccc(=O)[nH]c1=O`: the GI50 in the assay on DMS-114, in the assay on SNB-78, in the assay on KM-20L2, in the assay with DMS-273, with XF498 and in the assay on M19-MEL was > 100 µM (inactive) throughout.

`O=c1[nH]c(S)nc2c1sc(=S)n2-c1ccccc1`: the GI50 with DMS-114, with SNB-78, in the assay on HOP-18, with KM-20L2, in the assay with DMS-273 and with XF498 was > 100 µM (inactive) throughout. Moreover, the GI50 with M19-MEL and in the assay on DLD-1 was > 100 µM (inactive) each time.

Turning to `O=C1CC2=CCCC2O1` (centres undefined), the GI50 in the assay with DMS-114, in the assay with SNB-78, with DMS-273, in the assay with XF498, in the assay on M19-MEL and with DLD-1 was > 100 µM (inactive) each time.

With `CCOC(=O)CCC(=O)C1c2cccc(O)c2C(=O)c2c(O)cccc21`, the GI50 in the assay with DMS-114 is 0.387 µM (active); in the assay on SNB-78, 2.04 µM (inactive); in the assay on HOP-18, 1.77 µM (inactive); in the assay with DMS-273, 1.28 µM (inactive); with XF498, 0.236 µM (active); in the assay on M19-MEL, 0.566 µM (active). Further, the GI50 in the assay with DLD-1 was 1.69 µM (inactive).

Regarding `O=C1C(c2ccccc2)=[N+]([O-])c2ccc(Cl)cc21`, the GI50 is 12.8 µM (inactive) with DMS-114; 29.6 µM (inactive) with HOP-18; 35.1 µM (inactive) in the assay on KM-20L2; 19 µM (inactive) in the assay on XF498; 20.1 µM (inactive) in the assay with M19-MEL; 19 µM (inactive) in the assay on DLD-1. Also, the GI50 with RXF 631 was 32.7 µM (inactive).

As for `CSc1sc(=S)sc1C(=O)N(C)c1ccccc1`, the GI50 in the assay on DMS-114, in the assay on SNB-78, with KM-20L2, in the assay on DMS-273, with XF498 and with M19-MEL was > 100 µM (inactive) each time.

Consider `CSC(=O)C[C@@]12O[C@@H]([C@@H](C)C3CCC4[C@@H]5C(O)CC6=CC(=O)C=C[C@]6(C)C5CC[C@@]43C)C[C@](C)(O1)C(C)(C)O2` (some centres undefined), for which the GI50 is 5.81 µM (inactive) with DMS-114; 15.5 µM (inactive) in the assay on SNB-78; 15.9 µM (inactive) in the assay with DMS-273; 14.7 µM (inactive) in the assay with XF498; 1.43 µM (inactive) with M19-MEL; 19.8 µM (inactive) with RXF 631.

With `Cc1ccccc1/C=C/c1csnn1`, the GI50 in the assay with DMS-114 was > 40.6 µM (inactive); with SNB-78, > 100 µM (inactive); in the assay on HOP-18 it was > 100 µM (inactive); in the assay with KM-20L2, > 100 µM (inactive); in the assay on DMS-273, > 100 µM (inactive); in the assay with XF498, > 100 µM (inactive). Further, the GI50 was > 80.5 µM (inactive) with M19-MEL, > 49.5 µM (inactive) in the assay with DLD-1 and > 100 µM (inactive) in the assay with RXF 631.

On to `BrC12C3C4C5C(C(C43)C13OCCO3)C52` (centres undefined), for which the GI50 with DMS-114 is > 100 µM (inactive); in the assay on SNB-78 it was > 100 µM (inactive); in the assay on HOP-18, 8.55 µM (inactive); with KM-20L2, > 100 µM (inactive); in the assay with DMS-273, > 100 µM (inactive); in the assay on XF498 it was 60.4 µM (inactive). Moreover, the GI50 in the assay on M19-MEL, in the assay with DLD-1 and with RXF 631 was > 100 µM (inactive) throughout.

As to `C1CN(P2(N3CC3)=NP(N3CC3)(N3CC3)=NP(N3CC3)(N3CC3)=N2)CCO1` (centres undefined) [FOTRETAMINE], the GI50 with DMS-114 is 80.7 µM (inactive); with SNB-78 it was > 100 µM (inactive); in the assay on HOP-18, > 100 µM (inactive); in the assay on KM-20L2, > 100 µM (inactive); in the assay with DMS-273, 32.4 µM (inactive); in the assay on XF498, > 100 µM (inactive). Besides, the GI50 is > 100 µM (inactive) with M19-MEL and > 53.5 µM (inactive) with DLD-1.

Consider `CC12CC/C(=N/NC(N)=O)C3C1CCCC32`, for which the GI50 in the assay on DMS-114, in the assay with HOP-18, in the assay on KM-20L2, in the assay on DMS-273, with M19-MEL and with DLD-1 was > 100 µM (inactive) throughout. For the same molecule, in the assay with RXF 631, the GI50 is > 100 µM (inactive).

Consider `Cc1cc2nc(O)c(CCC(=O)O)nc2cc1C`, for which the GI50 in the assay on DMS-114 was 35.6 µM (inactive); in the assay on SNB-78 it was > 100 µM (inactive); in the assay on HOP-18, > 100 µM (inactive); in the assay on KM-20L2 it was > 100 µM (inactive); in the assay on XF498 it was > 100 µM (inactive); in the assay with M19-MEL, > 100 µM (inactive). The GI50 with DLD-1 and in the assay with RXF 631 was > 100 µM (inactive) in each case.

On to `O=C(NCO)NCOCn1c(=O)n(CO)c(=O)n(CO)c1=O`, for which the GI50 in the assay on DMS-114 was 34.4 µM (inactive); in the assay on SNB-78 it was 28.4 µM (inactive); in the assay with HOP-18, > 100 µM (inactive); with KM-20L2, 38.6 µM (inactive); with XF498, 23.2 µM (inactive); in the assay on M19-MEL, 32.4 µM (inactive). In addition, the GI50 is 24.9 µM (inactive) with DLD-1 and > 61.7 µM (inactive) with RXF 631.

Regarding `CC(=O)O[C@@H]1CC(C)C2CC2C2=C(C(O)OC2O)[C@@H]1C(C)CCC=C(C)C` (some centres undefined), the GI50 was 23.2 µM (inactive) in the assay with DMS-114; 30.5 µM (inactive) with SNB-78; 18.7 µM (inactive) in the assay on KM-20L2; 21.4 µM (inactive) with DMS-273; 19 µM (inactive) in the assay on XF498; 22.8 µM (inactive) with M19-MEL. In addition, the GI50 in the assay on DLD-1 is 32.4 µM (inactive).

For the molecule `N#[N+][c-]1c(-c2ccccc2)n[nH]c1=O`, the GI50 in the assay with DMS-114, in the assay on KM-20L2, in the assay with DMS-273, in the assay on XF498, with M19-MEL and in the assay with DLD-1 was > 100 µM (inactive) in each case. In addition, the GI50 in the assay on RXF 631 was > 100 µM (inactive).

As to `CN(C)CC1CC/C(=C\c2ccc(Cl)cc2)C1=O` (centres undefined), the GI50 in the assay with DMS-114 is 7.52 µM (inactive); in the assay on SNB-78 it was 16.3 µM (inactive); in the assay with HOP-18 it was 18.2 µM (inactive); in the assay on KM-20L2, 12.1 µM (inactive); with DMS-273, 3.85 µM (inactive); with XF498, 7.66 µM (inactive). The GI50 in the assay on M19-MEL was 3.54 µM (inactive); in the assay on DLD-1, 3.71 µM (inactive); in the assay with RXF 631 it was 20.4 µM (inactive).

The values above are taken from ChEMBL document CHEMBL1201862, “PubChem BioAssay data set” (2004).
